Test results reported in the NIST ThermoML archive (doi:10.1016/j.jct.2014.06.004).
Numbers after ± are expanded uncertainties.

Assays:
[1] = xn = mol fraction of the nth substance listed; conditions: 100 kPa, Liquid; for speed of sound: Frequency=3 MHz, Sing-around technique in a fixed-path interferometer; for mass density: Vibrating tube method
[2] = refractive index (Na D-line) (dimensionless); xn = mol fraction of the nth substance listed; conditions: 100 kPa, Liquid, Standard Abbe refractometry

CCCCCCC(=O)O [heptanoic acid] + CCCC(=O)O
Conditions | mass density, [1] [kg/m3] | refractive index, [2] | speed of sound, [1] [m/s]
293.15 K, x1 = 0.0559 | 954.2 ± 0.3 | 1.4005 ± 0.0005 | 1203 ± 2
293.15 K, x1 = 0.1059 | 951.3 ± 0.3 | 1.4024 ± 0.0005 | 1209 ± 2
293.15 K, x1 = 0.2061 | 945.8 ± 0.3 | 1.4054 ± 0.0005 | 1222 ± 2
293.15 K, x1 = 0.3087 | 940.8 ± 0.3 | 1.4084 ± 0.0005 | 1233 ± 2
293.15 K, x1 = 0.4037 | 936.7 ± 0.3 | 1.4109 ± 0.0005 | 1244 ± 2
293.15 K, x1 = 0.5037 | 932.7 ± 0.3 | 1.4134 ± 0.0005 | 1254 ± 2
293.15 K, x1 = 0.6006 | 929.2 ± 0.3 | 1.4157 ± 0.0005 | 1263 ± 2
293.15 K, x1 = 0.7049 | 925.8 ± 0.3 | 1.4179 ± 0.0005 | 1272 ± 2
293.15 K, x1 = 0.805 | 922.8 ± 0.3 | 1.4199 ± 0.0005 | 1280 ± 2
293.15 K, x1 = 0.9052 | 920.1 ± 0.3 | 1.4217 ± 0.0005 | 1289 ± 2
293.15 K, x1 = 0.9575 | 918.7 ± 0.3 | 1.4226 ± 0.0005 | 1292 ± 2
293.15 K, x1 = 1 | 917.7 ± 0.3 | 1.4234 ± 0.0005 | 1295 ± 2
298.15 K, x1 = 0.0559 | 949.3 ± 0.3 | 1.3984 ± 0.0005 | 1185 ± 2
298.15 K, x1 = 0.1059 | 946.4 ± 0.3 | 1.4001 ± 0.0005 | 1191 ± 2
298.15 K, x1 = 0.2061 | 941 ± 0.3 | 1.4033 ± 0.0005 | 1203 ± 2
298.15 K, x1 = 0.3087 | 936.2 ± 0.3 | 1.4063 ± 0.0005 | 1215 ± 2
298.15 K, x1 = 0.4037 | 932.1 ± 0.3 | 1.4089 ± 0.0005 | 1225 ± 2
298.15 K, x1 = 0.5037 | 928.2 ± 0.3 | 1.4114 ± 0.0005 | 1236 ± 2
298.15 K, x1 = 0.6006 | 924.8 ± 0.3 | 1.4136 ± 0.0005 | 1245 ± 2
298.15 K, x1 = 0.7049 | 921.5 ± 0.3 | 1.4159 ± 0.0005 | 1254 ± 2
298.15 K, x1 = 0.805 | 918.5 ± 0.3 | 1.4179 ± 0.0005 | 1263 ± 2
298.15 K, x1 = 0.9052 | 915.9 ± 0.3 | 1.4197 ± 0.0005 | 1271 ± 2
298.15 K, x1 = 0.9575 | 914.5 ± 0.3 | 1.4207 ± 0.0005 | 1275 ± 2
298.15 K, x1 = 1 | 913.5 ± 0.3 | 1.4214 ± 0.0005 | 1278 ± 2
303.15 K, x1 = 0.0559 | 944.4 ± 0.3 | 1.3963 ± 0.0005 | 1166 ± 2
303.15 K, x1 = 0.1059 | 941.6 ± 0.3 | 1.398 ± 0.0005 | 1172 ± 2
303.15 K, x1 = 0.2061 | 936.3 ± 0.3 | 1.4012 ± 0.0005 | 1185 ± 2
303.15 K, x1 = 0.3087 | 931.5 ± 0.3 | 1.4042 ± 0.0005 | 1197 ± 2
303.15 K, x1 = 0.4037 | 927.6 ± 0.3 | 1.4068 ± 0.0005 | 1207 ± 2
303.15 K, x1 = 0.5037 | 923.8 ± 0.3 | 1.4093 ± 0.0005 | 1217 ± 2
303.15 K, x1 = 0.6006 | 920.4 ± 0.3 | 1.4116 ± 0.0005 | 1227 ± 2
303.15 K, x1 = 0.7049 | 917.1 ± 0.3 | 1.4138 ± 0.0005 | 1236 ± 2
303.15 K, x1 = 0.805 | 914.2 ± 0.3 | 1.4158 ± 0.0005 | 1245 ± 2
303.15 K, x1 = 0.9052 | 911.6 ± 0.3 | 1.4177 ± 0.0005 | 1253 ± 2
303.15 K, x1 = 0.9575 | 910.3 ± 0.3 | 1.4186 ± 0.0005 | 1257 ± 2
303.15 K, x1 = 1 | 909.3 ± 0.3 | 1.4194 ± 0.0005 | 1260 ± 2
308.15 K, x1 = 0.0559 | 939.5 ± 0.3 | 1.3942 ± 0.0005 | 1147 ± 2
308.15 K, x1 = 0.1059 | 936.7 ± 0.3 | 1.3958 ± 0.0005 | 1154 ± 2
308.15 K, x1 = 0.2061 | 931.5 ± 0.3 | 1.3991 ± 0.0005 | 1167 ± 2
308.15 K, x1 = 0.3087 | 926.9 ± 0.3 | 1.4021 ± 0.0005 | 1179 ± 2
308.15 K, x1 = 0.4037 | 923 ± 0.3 | 1.4047 ± 0.0005 | 1189 ± 2
308.15 K, x1 = 0.5037 | 919.3 ± 0.3 | 1.4072 ± 0.0005 | 1199 ± 2
308.15 K, x1 = 0.6006 | 916 ± 0.3 | 1.4095 ± 0.0005 | 1209 ± 2
308.15 K, x1 = 0.7049 | 912.8 ± 0.3 | 1.4117 ± 0.0005 | 1218 ± 2
308.15 K, x1 = 0.805 | 910 ± 0.3 | 1.4138 ± 0.0005 | 1227 ± 2
308.15 K, x1 = 0.9052 | 907.4 ± 0.3 | 1.4157 ± 0.0005 | 1235 ± 2
308.15 K, x1 = 0.9575 | 906.1 ± 0.3 | 1.4166 ± 0.0005 | 1239 ± 2
308.15 K, x1 = 1 | 905.1 ± 0.3 | 1.4173 ± 0.0005 | 1242 ± 2
313.15 K, x1 = 0.0559 | 934.6 ± 0.3 | 1.392 ± 0.0005 | 1129 ± 2
313.15 K, x1 = 0.1059 | 931.9 ± 0.3 | 1.3937 ± 0.0005 | 1136 ± 2
313.15 K, x1 = 0.2061 | 926.8 ± 0.3 | 1.397 ± 0.0005 | 1148 ± 2
313.15 K, x1 = 0.3087 | 922.3 ± 0.3 | 1.4 ± 0.0005 | 1161 ± 2
313.15 K, x1 = 0.4037 | 918.5 ± 0.3 | 1.4026 ± 0.0005 | 1171 ± 2
313.15 K, x1 = 0.5037 | 914.8 ± 0.3 | 1.4051 ± 0.0005 | 1182 ± 2
313.15 K, x1 = 0.6006 | 911.6 ± 0.3 | 1.4074 ± 0.0005 | 1191 ± 2
313.15 K, x1 = 0.7049 | 908.4 ± 0.3 | 1.4097 ± 0.0005 | 1201 ± 2
313.15 K, x1 = 0.805 | 905.7 ± 0.3 | 1.4117 ± 0.0005 | 1209 ± 2
313.15 K, x1 = 0.9052 | 903.1 ± 0.3 | 1.4136 ± 0.0005 | 1218 ± 2
313.15 K, x1 = 0.9575 | 901.9 ± 0.3 | 1.4146 ± 0.0005 | 1222 ± 2
313.15 K, x1 = 1 | 900.9 ± 0.3 | 1.4153 ± 0.0005 | 1225 ± 2
